As usually defined, the inhibition in vivo is how much of the control response was suppressed.

Holding throughout (format): in vivo
One assay relates to stress-induced erosion. The assay can be described thus: Stress-induced erosion test (Senay & Levine), anti-ulcer activity. As for the experimental part:
(§1) Anti-ulcer activity was determined by the stress-induced erosion test of Senay & Levine, Proc. Soc. Exp. Biol. Med., 124, 1221-1223 (1967) and anti-secretory activity by the test of H. Shay, D. Sun and H. Greenstin, Gastroenterology, 1954, 26, 903-913 as exemplified by Beattie et al J. Med. Chem., 20, 714 (1977). […] However, some compounds show activity in tests for anti-hypertensive activity.

In the next assay the test system is hypersecretion. The assay can be described thus: Anti-secretory activity test (Shay et al). Details: key to Anti-secretory, % change in Vol.: NS: Not Significant. The following applies: for change in vivo at 10 mg/kg / change in vivo at 30 mg/kg: read-out: Anti-secretory, % change in Vol.; for change in vivo at 30 mg/kg / Anti-secretory, % change in Vol.: 30 mg/kg. The method, then: as §1

For assay [1], the system named is male spontaneously hypertensive rats. The assay can be described thus: Antihypertensive activity, Procedure A: systolic pressure of spontaneously hypertensive rats. The method, then: Systolic pressure of male spontaneously hypertensive rats is measured by an indirect technique using the Decker Caudal Plethysmograph or other appropriate sensor. Groups usually consist of 4 rats. Drugs are usually administered orally. Pressures are usually read prior to drug administration and at 1.5, 4 and 24 hours thereafter. This schedule may be altered depending upon the behaviour of the drug.

The subject of assay [2] is Female rats rendered hypertensive. The assay can be described thus: Antihypertensive activity, Procedure B: deoxycorticosterone acetate hypertensive rats (unilateral nephrectomy). Particulars: 50 mg/kg orally. As for the experimental part: Female rats are rendered hypertensive by unilateral nephrectomy and the s.c. implantation of a pellet containing 30 mg of deoxycorticosterone acetate. The drinking water is replaced by normal saline ad lib for the first four weeks following preparation. Blood pressures stabilise at a hypertensive level after 6 weeks. Systolic pressure is measured indirectly before dosing with a test compound using an E and M pneumatic pulse transducer and a Devices MX2 recorder. Groups of 4 rats are dosed orally with suspensions or solutions of the test compound in 0.5% hydroxypropyl-methyl-cellulose 0.9% saline vehicle. Blood pressures are recorded again at 2, 6 and 24 hours and the results, expressed as a percentage of the pre-dose values compared with those of a similar group of rats receiving vehicle alone.

`C[n+]1ccccc1SCc1c(Cl)cccc1Cl` [Example 5, 2-(2,6-Dichlorobenzylthio)-1-methylpyridinium chloride] gave an inhibition in vivo at 100 mg/kg in the assay with stress-induced erosion of 70%. In the assay with hypersecretion, the change in vivo at 10 mg/kg is -35% and the change in vivo at 30 mg/kg was -65%. In assay [1] (75 mg/kg orally), the “Antihypertensive activity (Procedure A)” value is recorded as “showed activity”.
`C[n+]1ccccc1SCc1cccc(Cl)c1` [Example 11, 1-Methyl-2-(3-chlorobenzylthio(pyridinium chloride] returned an inhibition in vivo at 100 mg/kg in the assay with stress-induced erosion of 62%. In the assay on hypersecretion, the change in vivo at 10 mg/kg is -42% and the change in vivo at 30 mg/kg is -70%. The “Antihypertensive activity (Procedure B)” value in assay [2] was “inactive”.
In the case of `C[n+]1ccccc1SCC1CCCCC1` [Example 12, 2-(Cyclohexylmethylthio)-1-methylpyridinium bromide], the inhibition in vivo at 10 mg/kg in the assay with stress-induced erosion (10 mg/kg) was determined as 64%. In the assay on stress-induced erosion, this compound displayed an inhibition in vivo at 30 mg/kg of 67% and an inhibition in vivo at 100 mg/kg of 87%. Further, the “Anti-secretory, % change in Vol.” value with hypersecretion was “NS”. Besides, the “Antihypertensive activity (Procedure B)” value in assay [2] was “inactive”.
`C[n+]1ccccc1SCC(=O)c1ccccc1` [Example 15, 1-Methyl-2-phenacylthiopyridinium bromide] came in with an inhibition in vivo at 100 mg/kg in the assay with stress-induced erosion of 100%. The “Anti-secretory, % change in Vol.” value in the assay on hypersecretion was “NS”. The “Antihypertensive activity (Procedure A)” value in assay [1] (75 mg/kg orally) is given as “showed activity”.
In the assay with stress-induced erosion, `C[n+]1ccccc1SCc1cccc(Br)c1` [Example 17, 2-(3-Bromobenzylthio)-1-methylpyridinium bromide] gave an inhibition in vivo at 100 mg/kg of 64%. Moreover, in the assay with hypersecretion, the change in vivo at 30 mg/kg was -52%. In addition, the “Antihypertensive activity (Procedure A)” value in assay [1] (50 mg/kg orally) was “inactive”.
For the compound `CC(C)c1ccc(CSc2cccc[n+]2C)cc1` [Example 18, 2-((-4-Isopropylbenzyl)thio)-1-methylpyridinium chloride], in the assay on stress-induced erosion, the inhibition in vivo at 30 mg/kg worked out at 60% and the inhibition in vivo at 100 mg/kg worked out at 71%. In addition, the change in vivo at 30 mg/kg in the assay on hypersecretion was -39%. For the same compound, the “Antihypertensive activity (Procedure A)” value in assay [1] (50 mg/kg orally) was “inactive”.

Source of the values: patent publication US4304781A, “Treatment of ulcers and hypertension” (John Wyeth & Brother Limited, priority 1978, dated 1981).
